Here are results for 14 compounds from patent US20260327191A1, “GSK3a INHIBITORS AND METHODS OF USE THEREOF” (Blueprint Medicines Corporation, priority 2023, published 2026).

The structures appear in SMILES notation. Where a name gives a salt, the structure may show the parent alone.

In one assay the target is T1, human GSK3α (Homo sapiens, UniProt P49840).
T1 construct: Full length human GSK3α or GSK3B expressed as N-terminal GST fusion proteins; GST (N); purchased Carna Biosciences (Japan); host or cells: baculovirus host
T1 sequence (P49840 whole entry, the tested form may be a part): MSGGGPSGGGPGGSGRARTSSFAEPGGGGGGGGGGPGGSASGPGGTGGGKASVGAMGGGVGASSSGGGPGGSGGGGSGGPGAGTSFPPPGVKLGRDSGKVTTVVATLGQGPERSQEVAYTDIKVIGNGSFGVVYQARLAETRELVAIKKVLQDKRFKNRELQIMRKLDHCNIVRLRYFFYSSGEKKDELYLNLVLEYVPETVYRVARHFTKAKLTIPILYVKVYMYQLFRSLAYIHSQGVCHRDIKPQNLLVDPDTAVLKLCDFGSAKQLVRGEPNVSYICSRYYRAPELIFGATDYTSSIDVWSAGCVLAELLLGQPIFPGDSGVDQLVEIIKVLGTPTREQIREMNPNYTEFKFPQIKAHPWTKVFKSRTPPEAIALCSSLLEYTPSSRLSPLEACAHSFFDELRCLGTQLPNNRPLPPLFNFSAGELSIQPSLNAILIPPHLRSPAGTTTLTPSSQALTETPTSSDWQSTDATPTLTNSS
The experiment in a line: In vitro enzymatic activity assay, GSK3α. The class given is biochemical. The conditions noted are these: 1.0 mM ATP, 1.0 μM peptide substrate, 120 min, 25° C, read-out: Enzyme GSK3α (IC50). How it is done:
(§1) Full length human GSK3α or GSK3B expressed as N-terminal GST fusion proteins in baculovirus host were purchased from Carna Biosciences (Japan). The kinase was pre-incubated with ATP (adenosine-5′-triphosphate) for 45 min, then incubated with tested compounds for another 45 min in assay buffer that contains 100 mM HEPES (N-2-hydroxyethylpiperazine-N′-2-ethanesulfonic acid), pH 7.5, 10 mM MgCl2, 1.0 mM DTT, and 0.015% Briji-35. […] Percent inhibition was plotted against compound concentration to generate 10-point dose response curve with 3-fold serial dilution starting from 10 μM. IC50 value was determined from the 4-parameter logistic curve fitting.

The target of another assay is T2, GSK3A (Homo sapiens, UniProt P49840).
T2 construct: expressed in transfected cells
T2 sequence (P49840 whole entry): as the sequence (P49840 whole entry, the tested form may be a part) above
The experiment in a line: NanoBRET cellular target engagement assay, Nanoluc-GSK3A in HEK293 cells. The class given is cell-based. The conditions noted are these: NanoBRET GSK3α IC50, HEK293 cells, tracer K-8, 2 hours, 37° C. How it is done: (§2) In the assay, HEK293 cells stably expressing either Nanoluc-GSK3A or Nanoluc-GSK3B were maintained in culture media and seeded, using a multidrop dispenser, at a density of 5×10^3 cells per well in 384-well white plates with 100 ng/ml doxycycline (Sigma) overnight.
(§3) Compound was first diluted in DMSO to generate a 9-point serial dilution then diluted to 10× final concentration in Opti-MEM™ (Gibco). After overnight incubation, cell medium was aspirated from the seeded cells using a microplate automatic washer, then 27 μL of pre-warmed Opti-MEM™ with kinase tracer (K-8) and 3 μL of Opti-MEM™ diluted DMSO or compounds were added per well. Plates were protected from light, mixed in an orbital shaker for 3 min at RT and incubated at 37° C., 5% CO2 in a humidified incubator for 2 hours. After acclimation at RT for 15 min, 15 μL of 3× complete NanoBRET™ Nano-Glo Substrate/Inhibitor (Promega) was added per well. Plates were mixed in an orbital shaker for 3 min at RT and incubated for an additional 30 min. Donor emission at 460 nm and acceptor emission at 647 nm were measured in EnVision multilabel plate reader (Perkin Elmer).
For orientation: In BRET a luciferase serves as donor, and the signal depends on an acceptor being close.

Assay [1] deals with T3, GSK3B (Homo sapiens, UniProt P49841). Kind of assay: NanoBRET cellular target engagement assay, Nanoluc-GSK3B in HEK293 cells. It is filed as cell-based. Set-up: expressed in transfected cells. The conditions noted are these: NanoBRET GSK3β IC50, HEK293 cells, tracer K-8, 2 hours, 37° C. The procedure: as §2, §3
T3 sequence (P49841 whole entry, the tested form may be a part): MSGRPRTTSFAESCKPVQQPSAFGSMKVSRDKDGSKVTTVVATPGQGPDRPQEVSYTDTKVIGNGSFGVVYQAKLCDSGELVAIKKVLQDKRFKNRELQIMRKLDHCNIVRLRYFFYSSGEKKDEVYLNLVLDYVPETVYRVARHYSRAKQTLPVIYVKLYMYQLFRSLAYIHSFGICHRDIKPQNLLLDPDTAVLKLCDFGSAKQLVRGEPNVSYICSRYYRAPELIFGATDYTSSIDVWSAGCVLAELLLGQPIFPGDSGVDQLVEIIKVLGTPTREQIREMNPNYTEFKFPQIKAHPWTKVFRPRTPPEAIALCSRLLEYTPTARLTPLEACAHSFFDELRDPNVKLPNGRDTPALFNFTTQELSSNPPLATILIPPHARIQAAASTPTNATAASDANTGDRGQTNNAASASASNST
Assay [2] has as its target T3, GSK3B. Kind of assay: In vitro enzymatic activity assay, GSK3β. The conditions noted are these: 1.0 mM ATP, 1.0 μM peptide substrate, 120 min, 25° C, read-out: Enzyme GSK3β (IC50). The class given is biochemical. Set-up: Full length human GSK3α or GSK3B expressed as N-terminal GST fusion proteins; GST (N); purchased Carna Biosciences (Japan); host or cells: baculovirus host. How it is done: as §1

Usually IC50 stands for the concentration needed to halve the response being measured. In the case of `Nc1ncn(-c2c(Cl)cc(OC3CC3)cc2Cl)c(=O)c1C(=O)Nc1cncc([C@@H]2CCCN2)c1` [Example 194, (S)-4-amino-1-(2,6-dichloro-4-cyclopropoxyphenyl)-6-oxo-N-(5-(pyrrolidin-2-yl)pyridin-3-yl)-1,6-dihydropyrimidine-5-carboxamide], the IC50 on human GSK3α stood at 6.2 nM; against GSK3A, 5.1 nM; against GSK3B [1] it was 330 nM; on GSK3B [2], 302 nM.
For `NCc1cncc(NC(=O)c2c(N)ncn(-c3c(Cl)cc(OC4CC4)cc3Cl)c2=O)c1` [Example 52, 4-amino-N-(5-(aminomethyl)pyridin-3-yl)-1-(2,6-dichloro-4-cyclopropoxyphenyl)-6-oxo-1,6-dihydropyrimidine-5-carboxamide] the same measures were 4.4 nM, 2.5 nM, 132 nM and 209 nM.
As to `COCc1cc(Cl)c(-n2cnc(N)c(C(=O)Nc3cncc([C@@H](C)N)c3)c2=O)c(Cl)c1` (single isomer, unassigned) [Example 67, (S)-4-amino-N-(5-(1-aminoethyl)pyridin-3-yl)-1-(2,6-dichloro-4-(methoxymethyl)phenyl)-6-oxo-1,6-dihydropyrimidine-5-carboxamide or (R)-4-amino-N-(5-(1-aminoethyl)pyridin-3-yl)-1-(2,6-dichloro-4-(methoxymethyl)phenyl)-6-oxo-1,6-dihydropyrimidine-5-carboxamide], the IC50 was 2.1 nM at human GSK3α, 1.4 nM at GSK3A, 73.4 nM at GSK3B [1] and 105 nM at GSK3B [2].
Turning to `COCc1cc(C)c(-n2cnc(N)c(C(=O)Nc3cncc([C@H]4CC[C@H](C)N4)c3)c2=O)c(C)c1` (single isomer, unassigned) [Example 103], the IC50 at human GSK3α is 13.2 nM; against GSK3A, 6.6 nM; at GSK3B [1], 532 nM; on GSK3B [2], 581 nM.
Take `Cc1cc(C(F)F)cc(C)c1-n1cnc(N)c(C(=O)Nc2cncc([C@H]3CCC[C@H](C)N3)c2)c1=O` (single isomer, unassigned) [Example 108]: the IC50 at human GSK3α was found to be 24.6 nM; on GSK3A, 8.7 nM; against GSK3B [1], 688 nM; on GSK3B [2] it was 998 nM.
In the same order, the values of `COc1cc(Cl)c(-n2cnc(N)c(C(=O)Nc3cncc([C@@H]4COCCCN4)c3)c2=O)c(Cl)c1` (single isomer, unassigned) [Example 75, (R)-N-(5-(1,4-oxazepan-3-yl)pyridin-3-yl)-4-amino-1-(2,6-dichloro-4-methoxyphenyl)-6-oxo-1,6-dihydropyrimidine-5-carboxamide or (S)-N-(5-(1,4-oxazepan-3-yl)pyridin-3-yl)-4-amino-1-(2,6-dichloro-4-methoxyphenyl)-6-oxo-1,6-dihydropyrimidine-5-carboxamide] are 2.4 nM, 3.6 nM, 186 nM and 106 nM.
For `COC[C@@H](N)c1cccc(NC(=O)c2c(N)ncn(-c3c(C)cc(OC)cc3Cl)c2=O)c1` (atropisomer, axis not shown) [Example 1, (S)-4-amino-N-(3-(1-amino-2-methoxyethyl)phenyl)-1-((S)-2-chloro-4-methoxy-6-methylphenyl)-6-oxo-1,6-dihydropyrimidine-5-carboxamide] the same measures were 3.6 nM, 3.6 nM, 243 nM and 168 nM.
In the same order, the values of `[2H]C([2H])([2H])NC(C)c1cncc(NC(=O)c2c(N)ncn(-c3c(C)cc(C(F)(F)F)cc3Cl)c2=O)c1` (single isomer, unassigned) [Example 16, (R)-4-amino-1-((S)-2-chloro-6-methyl-4-(trifluoromethyl)phenyl)-N-(5-(1-((methyl-d3)amino)ethyl)pyridin-3-yl)-6-oxo-1,6-dihydropyrimidine-5-carboxamide or (S)-4-amino-1-((S)-2-chloro-6-methyl-4-(trifluoromethyl)phenyl)-N-(5-(1-((methyl-d3)amino)ethyl)pyridin-3-yl)-6-oxo-1,6-dihydropyrimidine-5-carboxamide] are 4.1 nM, 1.9 nM, 132 nM and 255 nM.
With `CN(C)c1cc(Cl)c(-n2cnc(N)c(C(=O)Nc3cncc([C@@H]4CCCCN4)c3)c2=O)c(Cl)c1` [Example 123, (S)-4-amino-1-(2,6-dichloro-4-(dimethylamino)phenyl)-6-oxo-N-(5-(piperidin-2-yl)pyridin-3-yl)-1,6-dihydropyrimidine-5-carboxamide], the IC50 amounted to 4.8 nM on human GSK3α, 3.3 nM at GSK3A, 203 nM at GSK3B [1] and 266 nM on GSK3B [2].
For `Nc1ncn(-c2c(Cl)cccc2Cl)c(=O)c1C(=O)Nc1cncc([C@H]2CCOCCN2)c1` (single isomer, unassigned) [Example 215, (R)—N-(5-(1,4-oxazepan-5-yl)pyridin-3-yl)-4-amino-1-(2,6-dichlorophenyl)-6-oxo-1,6-dihydropyrimidine-5-carboxamide or (S)—N-(5-(1,4-oxazepan-5-yl)pyridin-3-yl)-4-amino-1-(2,6-dichlorophenyl)-6-oxo-1,6-dihydropyrimidine-5-carboxamide] the same measures were 7.2 nM, 8.5 nM, 690 nM and 500 nM.
`C[C@@H](N)c1cncc(NC(=O)c2c(N)ncn(-c3c(Cl)cc(Cl)cc3Cl)c2=O)c1` (single isomer, unassigned) [Example 50, (R)-4-amino-N-(5-(1-aminoethyl)pyridin-3-yl)-6-oxo-1-(2,4,6-trichlorophenyl)-1,6-dihydropyrimidine-5-carboxamide or (S)-4-amino-N-(5-(1-aminoethyl)pyridin-3-yl)-6-oxo-1-(2,4,6-trichlorophenyl)-1,6-dihydropyrimidine-5-carboxamide]: the IC50 at human GSK3α is 16.5 nM; against GSK3A, 7.4 nM; at GSK3B [1], 439 nM; on GSK3B [2], 708 nM.
For `CCNCc1cncc(NC(=O)c2c(N)ncn(-c3c(Cl)cc(C(=O)OC)cc3Cl)c2=O)c1` [Example 198, methyl 4-(4-amino-5-((5-((ethylamino)methyl)pyridin-3-yl)carbamoyl)-6-oxopyrimidin-1 (6H)-yl)-3,5-dichlorobenzoate] the same measures were 5.6 nM, 3.7 nM, 209 nM and 332 nM.
For `COc1c(CN)cccc1NC(=O)c1c(N)ncn(-c2c(Cl)cccc2Cl)c1=O` [Example 221, 4-amino-N-(3-(aminomethyl)-2-methoxyphenyl)-1-(2,6-dichlorophenyl)-6-oxo-1,6-dihydropyrimidine-5-carboxamide trifluoroacetate] the same measures were 15.6 nM, 7.3 nM, 235 nM and 400 nM.
For `COc1cc(Cl)c(-n2cnc(N)c(C(=O)Nc3cncc([C@]4(N)CCCOC4)c3)c2=O)c(Cl)c1` (single isomer, unassigned) [Example 188, R)-4-amino-N-(5-(3-aminotetrahydro-2H-pyran-3-yl)pyridin-3-yl)-1-(2,6-dichloro-4-methoxyphenyl)-6-oxo-1,6-dihydropyrimidine-5-carboxamide or (S)-4-amino-N-(5-(3-aminotetrahydro-2H-pyran-3-yl)pyridin-3-yl)-1-(2,6-dichloro-4-methoxyphenyl)-6-oxo-1,6-dihydropyrimidine-5-carboxamide] the same measures were 10.4 nM, 3.9 nM, 345 nM and 460 nM.
